Assay: excess molar enthalpy (molar enthalpy of mixing); xn = mol fraction of the nth substance listed
Conditions: 101 kPa, Liquid, Flow calorimetry

CCCCCCC [heptane] + Cc1ccccc1
x1 = 1
Conditions	excess molar enthalpy [kcal/mol]
298.15 K	0
313.15 K	0

CCOC(C)(C)C [2-ethoxy-2-methylpropane] + Cc1ccccc1
excess molar enthalpy [kcal/mol]
Conditions	298.15 K	313.15 K
x1 = 0.0248	-0.000932	–
x1 = 0.0491	-0.00174	–
x1 = 0.0499	–	-0.000793
x1 = 0.0739	-0.00261	–
x1 = 0.0997	–	-0.00129
x1 = 0.1003	-0.00356	–
x1 = 0.1498	-0.00507	–
x1 = 0.151	–	-0.00222
x1 = 0.1991	-0.00657	–
x1 = 0.2004	–	-0.00298
x1 = 0.2489	-0.00774	–
x1 = 0.2511	–	-0.00405
x1 = 0.2993	-0.00887	–
x1 = 0.2998	–	-0.00479
x1 = 0.3499	–	-0.00517
x1 = 0.3513	-0.00968	–
x1 = 0.3987	-0.0103	–
x1 = 0.4011	–	-0.00591
x1 = 0.4495	-0.0108	–
x1 = 0.45	–	-0.00608
x1 = 0.5003	–	-0.0065
x1 = 0.5019	-0.011	–
x1 = 0.5499	–	-0.00634
x1 = 0.5515	-0.0109	–
x1 = 0.599	-0.0108	–
x1 = 0.6007	–	-0.00599
x1 = 0.6491	-0.0102	–
x1 = 0.6506	–	-0.00587
x1 = 0.6996	–	-0.00548
x1 = 0.7014	-0.00946	–
x1 = 0.7495	-0.00832	–
x1 = 0.7498	–	-0.00491
x1 = 0.801	-0.007	–
x1 = 0.8013	–	-0.00411
x1 = 0.8492	–	-0.00341
x1 = 0.8514	-0.00531	–
x1 = 0.9006	-0.00361	–
x1 = 0.9008	–	-0.0024
x1 = 0.951	-0.00172	–
x1 = 0.9511	–	-0.00144
x1 = 1	0	0

COC(C)(C)C [2-methoxy-2-methylpropane] + CCCCCC
298.15 K
Conditions	excess molar enthalpy [kcal/mol]
x1 = 0.0504	0.0172
x1 = 0.1002	0.0319
x1 = 0.1497	0.045
x1 = 0.2008	0.0567
x1 = 0.2491	0.0658
x1 = 0.2994	0.0739
x1 = 0.3486	0.0805
x1 = 0.4002	0.0856
x1 = 0.4484	0.0883
x1 = 0.4997	0.0894
x1 = 0.5493	0.0885
x1 = 0.6006	0.0858
x1 = 0.6496	0.0815
x1 = 0.7001	0.0749
x1 = 0.75	0.0671
x1 = 0.7992	0.0569
x1 = 0.8501	0.0452
x1 = 0.9007	0.0316
x1 = 0.9506	0.0169
x1 = 1	0

CCCO [propan-1-ol] + COC(C)(C)C
Conditions	excess molar enthalpy [kcal/mol]
298.15 K, x2 = 0	0

C1CCCCC1 [cyclohexane] + CCOC(C)(C)C
x2 = 0
Conditions	excess molar enthalpy [kcal/mol]
298.15 K	0
313.15 K	0

CCOC(C)(C)C [2-ethoxy-2-methylpropane] + C1CCCCC1
excess molar enthalpy [kcal/mol]
Conditions	298.15 K	313.15 K
x1 = 0.0505	0.0121	–
x1 = 0.0506	–	0.0114
x1 = 0.1	0.0236	–
x1 = 0.1001	–	0.0219
x1 = 0.1508	0.0343	–
x1 = 0.1509	–	0.0326
x1 = 0.2005	0.0433	–
x1 = 0.2006	–	0.0417
x1 = 0.2514	0.0519	–
x1 = 0.2515	–	0.05
x1 = 0.3011	0.059	–
x1 = 0.3012	–	0.0562
x1 = 0.3519	0.0652	0.0624
x1 = 0.4014	0.0703	–
x1 = 0.4015	–	0.0675
x1 = 0.4519	0.0741	–
x1 = 0.452	–	0.0704
x1 = 0.5012	0.0761	0.0729
x1 = 0.5513	0.0773	0.0736
x1 = 0.6021	0.0764	0.0731
x1 = 0.6516	0.0739	–
x1 = 0.6517	–	0.0708
x1 = 0.7017	0.0701	–
x1 = 0.7019	–	0.0669
x1 = 0.7507	0.0643	–
x1 = 0.7508	–	0.0616
x1 = 0.8002	0.0564	0.0535
x1 = 0.85	–	0.0439
x1 = 0.8501	0.0464	–
x1 = 0.9003	0.0339	0.0321
x1 = 0.9508	0.0182	0.0174
x1 = 1	0	0

CCCCCC [hexane] + COC(C)(C)C
Conditions	excess molar enthalpy [kcal/mol]
298.15 K, x2 = 0	0

CCCCCCC [heptane] + CCOC(C)(C)C
x2 = 0
Conditions	excess molar enthalpy [kcal/mol]
298.15 K	0
313.15 K	0

COC(C)(C)C [2-methoxy-2-methylpropane] + CCCO
298.15 K
Conditions	excess molar enthalpy [kcal/mol]
x1 = 0.0491	0.0148
x1 = 0.0997	0.0314
x1 = 0.1503	0.0481
x1 = 0.1976	0.0632
x1 = 0.2472	0.0781
x1 = 0.2965	0.0915
x1 = 0.3477	0.105
x1 = 0.4008	0.116
x1 = 0.4468	0.124
x1 = 0.4982	0.131
x1 = 0.5486	0.136
x1 = 0.5974	0.138
x1 = 0.6485	0.136
x1 = 0.6977	0.133
x1 = 0.7491	0.126
x1 = 0.7985	0.114
x1 = 0.8494	0.0963
x1 = 0.8986	0.0737
x1 = 0.9498	0.0413
x1 = 1	0

C1CCCCC1 [cyclohexane] + Cc1ccccc1
excess molar enthalpy [kcal/mol]
Conditions	298.15 K	313.15 K
x1 = 0.0491	–	0.0248
x1 = 0.0492	0.0263	–
x1 = 0.1003	–	0.0482
x1 = 0.1004	0.051	–
x1 = 0.1496	–	0.0686
x1 = 0.1497	0.0728	–
x1 = 0.199	–	0.0861
x1 = 0.1991	0.091	–
x1 = 0.2485	–	0.101
x1 = 0.2486	0.108	–
x1 = 0.298	–	0.115
x1 = 0.2981	0.121	–
x1 = 0.3477	–	0.125
x1 = 0.3479	0.132	–
x1 = 0.3974	–	0.134
x1 = 0.3976	0.141	–
x1 = 0.4493	0.147	0.139
x1 = 0.4992	0.149	0.142
x1 = 0.5493	0.149	0.142
x1 = 0.5974	–	0.139
x1 = 0.5975	0.147	–
x1 = 0.6476	–	0.134
x1 = 0.6478	0.141	–
x1 = 0.6979	–	0.125
x1 = 0.6981	0.131	–
x1 = 0.7483	–	0.113
x1 = 0.7485	0.118	–
x1 = 0.7989	–	0.0978
x1 = 0.799	0.103	–
x1 = 0.8496	0.0828	0.0788
x1 = 0.9003	0.0585	0.0562
x1 = 0.9491	0.0319	0.0304
x1 = 1	0	0

Cc1ccccc1 [toluene] + CCOC(C)(C)C
x2 = 0
Conditions	excess molar enthalpy [kcal/mol]
298.15 K	0
313.15 K	0

Cc1ccccc1 [toluene] + C1CCCCC1
x2 = 0
Conditions	excess molar enthalpy [kcal/mol]
298.15 K	0
313.15 K	0

CCCCCC [hexane] + C1CCCCC1
Conditions	excess molar enthalpy [kcal/mol]
298.15 K, x2 = 0	0

CCOC(C)(C)C [2-ethoxy-2-methylpropane] + CCCCCCC
excess molar enthalpy [kcal/mol]
Conditions	298.15 K	313.15 K
x1 = 0.0511	–	0.0101
x1 = 0.0512	0.0109	–
x1 = 0.1007	0.0212	–
x1 = 0.1504	0.0293	–
x1 = 0.1507	–	0.0288
x1 = 0.2003	0.0387	–
x1 = 0.2008	–	0.037
x1 = 0.2509	0.0449	–
x1 = 0.2511	–	0.0453
x1 = 0.3016	0.0512	–
x1 = 0.3019	–	0.0507
x1 = 0.3505	0.057	–
x1 = 0.351	–	0.055
x1 = 0.4019	0.0606	–
x1 = 0.4024	–	0.0587
x1 = 0.4515	0.0647	–
x1 = 0.4518	–	0.0601
x1 = 0.5014	0.0658	–
x1 = 0.5017	–	0.0605
x1 = 0.5516	0.0651	–
x1 = 0.5519	–	0.0598
x1 = 0.6022	0.0636	–
x1 = 0.6024	–	0.0586
x1 = 0.6509	0.0608	–
x1 = 0.6511	–	0.0558
x1 = 0.7019	0.0558	–
x1 = 0.7022	–	0.0521
x1 = 0.7512	0.0501	–
x1 = 0.7515	–	0.0465
x1 = 0.8008	0.0433	–
x1 = 0.801	–	0.04
x1 = 0.8507	0.0349	–
x1 = 0.8509	–	0.0321
x1 = 0.9009	0.0243	–
x1 = 0.901	–	0.0225
x1 = 0.9492	0.0132	–
x1 = 0.9493	–	0.0122
x1 = 1	0	0

Cc1ccccc1 [toluene] + CCCCCCC
excess molar enthalpy [kcal/mol]
Conditions	298.15 K	313.15 K
x2 = 0	0	0
x2 = 0.0502	0.0295	0.0284
x2 = 0.1008	0.0551	0.053
x2 = 0.1501	0.0761	0.0732
x2 = 0.1995	0.094	0.09
x2 = 0.2507	–	0.104
x2 = 0.2508	0.108	–
x2 = 0.3002	0.119	0.114
x2 = 0.3495	0.127	–
x2 = 0.3496	–	0.121
x2 = 0.4005	0.131	–
x2 = 0.4006	–	0.126
x2 = 0.4494	0.134	–
x2 = 0.4497	–	0.128
x2 = 0.4999	0.133	0.128
x2 = 0.55	0.13	0.125
x2 = 0.5995	0.125	0.119
x2 = 0.6505	0.116	–
x2 = 0.6506	–	0.111
x2 = 0.7009	0.106	0.102
x2 = 0.7504	0.0935	–
x2 = 0.7505	–	0.0899
x2 = 0.799	0.0797	0.0763
x2 = 0.849	0.0631	0.0599
x2 = 0.9005	0.0431	0.0416
x2 = 0.9509	0.0221	0.0212

C1CCCCC1 [cyclohexane] + CCCCCC
298.15 K
Conditions	excess molar enthalpy [kcal/mol]
x1 = 0.074	0.0116
x1 = 0.1463	0.0217
x1 = 0.219	0.0302
x1 = 0.2876	0.0377
x1 = 0.3542	0.0438
x1 = 0.4193	0.0482
x1 = 0.4832	0.0512
x1 = 0.5476	0.0524
x1 = 0.6085	0.0525
x1 = 0.6675	0.051
x1 = 0.7255	0.0476
x1 = 0.7839	0.0426
x1 = 0.8395	0.0353
x1 = 0.8935	0.026
x1 = 0.9482	0.014
x1 = 1	0

Reference: the NIST ThermoML archive (doi:10.1016/j.jct.2008.12.004)
